Measured values as given in patent US20200078468A1, “NEUROTENSIN RECEPTOR BINDING CONJUGATES AND FORMULATIONS THEREOF” (priority 2016, published 2020).
Where two headings read alike, the source gives them in different places. Numbered stars: 1 amine (or outer) side, 2 acyl side, 3 side chain; on linkers, the order of the positions; unused ones are H or OH. Bridge positions count the residues as written; N and C are the ends. Square brackets hold non-standard residues; d marks the D form. Peptide text beside a SMILES is read from it. I, II: the chains in the order shown. * marks the point of attachment. MMAE(N-CO2CH2CH2S) = CC[C@H](C)[C@@H]([C@@H](CC(=O)N1CCC[C@H]1[C@H](OC)[C@@H](C)C(=O)N[C@H](C)[C@@H](O)c1ccccc1)OC)N(C)C(=O)[C@@H](NC(=O)[C@H](C(C)C)N(C)C(=O)OCCS*)C(C)C; Propanoyl(3-SS-DM1) = COc1cc2cc(c1Cl)N(C)C(=O)C[C@H](OC(=O)[C@H](C)N(C)C(=O)CCSSCCC(=O)*)[C@]1(C)O[C@H]1[C@H](C)[C@@H]1C[C@@](O)(NC(=O)O1)[C@H](OC)/C=C/C=C(\C)C2; Hexanoyl(6-succinimido-3yl) = O=C1CC([*:1])C(=O)N1CCCCCC(=O)[*:2]; Dolaproine = CO[C@@H]([C@@H]1CCCN1)[C@@H](C)C(=O)O; Dil = CC[C@H](C)[C@H](NC)[C@@H](CC(=O)O)OC; PABC = O=C(OCc1ccc(N[*:1])cc1)[*:2]; NMeR = CN[C@@H](CCCNC(=N)N)C(=O)O; X1 = C[C@@H](N*)[C@@H](O)c1ccccc1; Cit = NC(=O)NCCC[C@H](N)C(=O)O; Pen = CC(C)(S)[C@H](N)C(=O)O; Tle = CC(C)(C)[C@H](N)C(=O)O; NMeV = CN[C@H](C(=O)O)C(C)C

Assays:
human NTSR1 = target: T1, human NTSR1 (Homo sapiens, UniProt P30989); experiment: radioligand-receptor binding assay, [125I] labeled neurotensin (Eurofins Panlabs)
T1 construct: host or cells: HEK-293 cells (membrane preparations)
T1 sequence (P30989 whole entry): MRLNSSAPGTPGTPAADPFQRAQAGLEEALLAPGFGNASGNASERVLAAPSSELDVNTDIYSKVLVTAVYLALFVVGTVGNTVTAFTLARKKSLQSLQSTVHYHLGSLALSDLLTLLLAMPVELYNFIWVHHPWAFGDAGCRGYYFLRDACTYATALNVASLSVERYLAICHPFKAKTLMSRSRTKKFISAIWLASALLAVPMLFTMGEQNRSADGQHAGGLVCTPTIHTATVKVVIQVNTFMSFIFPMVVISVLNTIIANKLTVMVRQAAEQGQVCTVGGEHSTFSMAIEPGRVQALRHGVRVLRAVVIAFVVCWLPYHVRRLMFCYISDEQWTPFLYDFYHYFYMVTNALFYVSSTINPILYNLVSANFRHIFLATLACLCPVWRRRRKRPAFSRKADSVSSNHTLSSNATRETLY
How it was run: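 Membranes from HEK-293 cells expressing human NTSR1 incubated 45 min with 0.02 nM [125I]neurotensin and conjugate in 6-point 3-fold dilutions from 100 or 10 nM; bound radioactivity counted after filtration. IC50 by nonlinear regression, converted to Ki via Cheng–Prusoff using historical ligand Kd.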

[1] = tested on: SW48 (human colon cancer cells); experiment: inhibition of SW48 cell proliferation (CellTiter Glo); type: cell-based; details: NTSR1 targeted compound; 72 hrs; read-out: SW-48 proliferation IC50
How it was run: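 Cells plated at 5,000/well and grown 24 hrs were exposed to conjugates for 72 hrs at 37° C, 5% CO2, in a ten-point three-fold series starting at 10 μM; vehicle was 0.01% DMSO. Proliferation was read by CellTiter Glo. % inhibition was taken relative to vehicle, with IC50 from four-parameter nonlinear regression.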

[2] = tested on: HT-29 cells (human colon cancer cells); experiment: inhibition of HT29 cell proliferation (Cell Titer Glo 2.0); type: cell-based; details: NTSR1 targeted compound; 72 h
Experimental: Conjugates were assessed in an in vitro assay evaluating inhibition of cell proliferation. HT-29 cells (human colon cancer cells) were seeded in white walled 96-well plates at 10,000 cells per well in 100 μl McCoy's 5a (Invitrogen) media supplemented with 10% Fetal Bovine Serum (Invitrogen). After allowing cells to settle overnight, 5 μl of 20× test article was added to each well in replicate and incubated for 72 h. 72 hours after addition of compound, plates were removed from incubator and allowed to cool to room temperature. 50 μl of Cell Titer Glo 2.0 (Promega) was added to each well, incubated for 15 minutes, and plates were read on Glomax luminometer (Promega) using the Cell Titer Glo protocol. Raw luminometer readings for each plate were transformed by dividing the experimental well into the mean of untreated control wells. This is reported as ratio of untreated, and is plotted with Prism 6 software (Graph Pad) and fitted with a 4-parameter, variable slope curve.
Conjugates are assessed for receptor-dependent cytotoxicity by the difference between an NTSR1-targeting conjugate, and the corresponding conjugate with the same linker moiety and active agent where the NTSR1-targeting domain has been scrambled.

[3] = [125I] neurotensin 0.02 nM, membranes from NTSR1 expressing HEK-293 cells, 45 minute incubation, Cheng and Prusoff, read-out: NTSR1 binding Ki

With `COc1cc2cc(c1Cl)N(C)C(=O)C[C@H](OC(=O)[C@H](C)N(C)C(=O)CCSSCCC(=O)NCCCC[C@H](NC(C)=O)C(=O)N1CCC[C@H]1C(=O)N(C)[C@@H](CCCNC(=N)N)C(=O)N[C@@H](CCCNC(=N)N)C(=O)N1CCC[C@H]1C(=O)N[C@@H](Cc1ccc(O)cc1)C(=O)N[C@H](C(=O)N[C@@H](CC(C)C)C(=O)O)C(C)(C)C)[C@]1(C)O[C@H]1[C@H](C)[C@@H]1C[C@@](O)(NC(=O)O1)[C@H](OC)/C=C/C=C(\C)C2` [Compound 13] (Ac-K(Propanoyl(3-SS-DM1))P[NMeR]RPY[Tle]L-OH) the Ki (human NTSR1; [3]) was 0.48 nM, the IC50 [1] was 1.6 nM and the IC50 [2] was 4.9 nM.

For `COc1cc2cc(c1Cl)N(C)C(=O)C[C@H](OC(=O)[C@H](C)N(C)C(=O)CCSC1CC(=O)N(CCCNC(=O)CNC(=O)[C@H](CC(C)C)NC(=O)[C@H](Cc3ccccc3)NC(=O)CNC(=O)CCC(=O)NCCCC[C@H](NC(C)=O)C(=O)N3CCC[C@H]3C(=O)N(C)[C@@H](CCCNC(=N)N)C(=O)N[C@@H](CCCNC(=N)N)C(=O)N3CCC[C@H]3C(=O)N[C@@H](Cc3ccc(O)cc3)C(=O)N[C@H](C(=O)N[C@@H](CC(C)C)C(=O)O)C(C)(C)C)C1=O)[C@]1(C)O[C@H]1[C@H](C)[C@@H]1C[C@@](O)(NC(=O)O1)[C@H](OC)/C=C/C=C(\C)C2` (stereo partly drawn) [Compound 14], the Ki (human NTSR1; [3]) was 0.78 nM, the IC50 [1] was 2.2 nM and the IC50 [2] was 17 nM.

Work on `COc1cc2cc(c1Cl)N(C)C(=O)C[C@H](OC(=O)[C@H](C)N(C)C(=O)CCSC1CC(=O)N(CCCCCC(=O)NCCCC[C@H](NC(C)=O)C(=O)N3CCC[C@H]3C(=O)N(C)[C@@H](CCCNC(=N)N)C(=O)N[C@@H](CCCNC(=N)N)C(=O)N3CCC[C@H]3C(=O)N[C@@H](Cc3ccc(O)cc3)C(=O)N[C@H](C(=O)N[C@@H](CC(C)C)C(=O)O)C(C)(C)C)C1=O)[C@]1(C)O[C@H]1[C@H](C)[C@@H]1C[C@@](O)(NC(=O)O1)[C@H](OC)/C=C/C=C(\C)C2` (stereo partly drawn) [Compound 15] yielded a Ki (human NTSR1; [3]) of 1.08 nM, an IC50 [1] of 70 nM and an IC50 [2] of 96 nM.

`CC[C@H](C)[C@@H]([C@@H](CC(=O)N1CCC[C@H]1[C@H](OC)[C@@H](C)C(=O)N[C@H](C)[C@@H](O)c1ccccc1)OC)N(C)C(=O)[C@@H](NC(=O)[C@H](C(C)C)N(C)C(=O)OCc1ccc(NC(=O)[C@H](CCCNC(N)=O)NC(=O)[C@@H](NC(=O)CCCCCN2C(=O)CC(SC(C)(C)[C@H](NC(C)=O)C(=O)N3CCC[C@H]3C(=O)N[C@@H](CCCNC(=N)N)C(=O)N[C@@H](CCCNC(=N)N)C(=O)N3CCC[C@H]3C(=O)N[C@@H](Cc3ccc(O)cc3)C(=O)N[C@H](C(=O)N[C@@H](CC(C)C)C(=O)O)C(C)(C)C)C2=O)C(C)C)cc1)C(C)C` (stereo partly drawn) [Compound 53] (I: Ac-[Pen]PRRPY[Tle]L-OH / II: V[Cit][PABC][NMeV]V[Dil][Dolaproine]-X1; linker I:1-II:N via Hexanoyl(6-succinimido-3yl)) showed a Ki (human NTSR1; [3]) of 3.15 nM, an IC50 [1] of 17 nM and an IC50 [2] of 16 nM.

`CC[C@H](C)[C@@H]([C@@H](CC(=O)N1CCC[C@H]1[C@H](OC)[C@@H](C)C(=O)N[C@H](C)[C@@H](O)c1ccccc1)OC)N(C)C(=O)[C@@H](NC(=O)[C@H](C(C)C)N(C)C(=O)OCc1ccc(NC(=O)[C@H](CCCNC(N)=O)NC(=O)[C@@H](NC(=O)CCCCCN2C(=O)CC(SCCC(=O)NCCCC[C@H](NC(C)=O)C(=O)N3CCC[C@H]3C(=O)N(C)[C@@H](CCCNC(=N)N)C(=O)N[C@@H](CCCNC(=N)N)C(=O)N3CCC[C@H]3C(=O)N[C@@H](Cc3ccc(O)cc3)C(=O)N[C@H](C(=O)N[C@@H](CC(C)C)C(=O)O)C(C)(C)C)C2=O)C(C)C)cc1)C(C)C` (stereo partly drawn) [Compound 54] was tested, and the Ki (human NTSR1) was 1.45 nM, the IC50 [1] was 22 nM and the IC50 [2] was 6.2 nM.

Work on `CC[C@H](C)[C@@H]([C@@H](CC(=O)N1CCC[C@H]1[C@H](OC)[C@@H](C)C(=O)N[C@H](C)[C@@H](O)c1ccccc1)OC)N(C)C(=O)[C@@H](NC(=O)[C@H](C(C)C)N(C)C(=O)OCCSSC(C)(C)[C@H](NC(C)=O)C(=O)N1CCC[C@H]1C(=O)N[C@@H](CCCNC(=N)N)C(=O)N[C@@H](CCCNC(=N)N)C(=O)N1CCC[C@H]1C(=O)N[C@@H](Cc1ccc(O)cc1)C(=O)N[C@H](C(=O)N[C@@H](CC(C)C)C(=O)O)C(C)(C)C)C(C)C` [Compound 55] (Ac-[Pen](MMAE(N-CO2CH2CH2S))PRRPY[Tle]L-OH) yielded a Ki (human NTSR1; [3]) of 1.53 nM, an IC50 [1] of 13 nM and an IC50 [2] of 1.9 nM.
